Tests used:
primary T cells = type: cell-based
Protocol: The non-specific cytoxicity of HF in both normal and transformed T-cells at high doses was evaluated. Anti-CD3/anti-CD28 activated primary T cells were harvested 6 days after activation and cultured in the presence of IL-2 with or without HF (100 nM). As a positive control, some T cells were cultured without IL-2 to induce apoptosis (FIG. 3A). Jurkat T cells, a transformed T cell leukemia line, were cultured in complete medium with or without HF (100 nM) as indicated (FIG. 3B). Both primary and Jurkat T cells were cultured for 30 hours and programmed cell death, i.e. apoptosis, was determined by Annexin V staining and propidium iodide (PI) uptake and cells were analyzed by flow cytometry. The percent of apoptotic T cells at each time point was plotted and was defined as Annexin V^+ PI^−. […] In further experiments, titrating amounts of HF were added to primary T cells and apoptosis was determine as above at the indicated time points. At 100 nM HF, but not 30 nM or lower, generalized T-cell apoptosis was observed (FIG. 3C).

STAT3 phosphorylation = assay: Kinetics of STAT3 phosphorylation in developing Th17 cells; type: cell-based, mouse
Protocol: FIG. 11A is a series of graphs depicting representative histograms displaying the kinetics of STAT3 phosphorylation in developing Th17 cells treated with or without HF. Resting naïve T cells (shaded peak), T cells activated in the presence of TGFβ plus IL-6 (TGFβ/IL-6) treated with 10 nM MAZ1310, TGFβ/IL-6-activated T cells treated with 5 nM HF, TGFβ/IL-6-activated T cells treated with 10 nM HF. T cells were fixed at the indicated times and intracellular phospho-STAT3 staining was performed.
FACS analyses and sorting: All cell surface staining was performed in FACS buffer (PBS/2% FCS/0.1% NaN3) and antibodies were incubated with cells on ice for 20-30 minutes. Cells were washed with FACS buffer and fixed with FACS buffer plus 1% paraformaldehyde prior to data acquisition. For phospho-STAT3 intracellular staining, stimulated T cells cultured with or without TGF plus IL-6 for the indicated times were harvested on ice and fixed in PBS plus 2% paraformaldehyde for 10 minutes at 37° C. Fixed cells were washed twice with staining buffer (PBS/1% BSA/0.1% NaN3) and then permeabilized with perm buffer III (BD Pharmingen) on ice for 30 minutes. […] All FACS data was acquired on a FACSCalibur flow cytometer (BD Pharmingen) and analyzed using FlowJo software (Treestar, Inc., Ashland, Oreg.). […]

[1] = tested on: AAR pathway in splenocytes; assay: In vivo activation of the AAR pathway in splenocytes of HF-injected mice; design: species or system C57B/6 mice; details: 2.5 μg HF i.p., 6 hours post injection
Protocol: FIG. 20A is a graph depicting splenocytes from control- and HF-treated mice. C57B/6 mice were injected i.p. with vehicle (DMSO) or 2.5 μg HF. Spleens were harvested 6 hours post injection, red blood cells were lysed and total splenocytes were counted. Data are presented as mean cell counts±SD from 2 mice per group.
FIG. 20C is a graph depicting eIF2α expression in control- and HF-treated mice. Splenocytes from mice injected with DMSO or HF as above were harvested 6 hours post injection. Red blood cells were lysed and immunoblotting was performed on whole cell extracts for phosphorylated or total eIF2α as indicated.
FIG. 20D is a graph depicting the results of quantitative real-time PCR (qPCR) experiments performed for AAR-associated gene expression (Asns, Gpt2, eIF4Ebp1) using cDNA generated from splenocytes of mice injected with DMSO or HF as above. Expression of AAR-associated genes were normalized to Hprt levels and data are presented as mean relative expression from duplicate samples±SD.
Studies were conducted to evaluate the effect of HF treatment in mice.

O=C(CC1NCCCC1O)Cn1cnc2cc(Br)c(Cl)cc2c1=O (racemic) [HF, 7-bromo-6-chloro-3-[3-(3-hydroxy-2-piperidinyl)-2-oxopropyl]-4(3H)-quinazolinone]
concentration at which generalized T-cell apoptosis was not observed (primary T cells): ≤ 0.03 µM
concentration at which generalized T-cell apoptosis was observed (primary T cells): 0.1 µM
time post activation at which maintenance of STAT3 phosphorylation begins to decrease (STAT3 phosphorylation; 5 or 10 nM HF, TGFβ plus IL-6): around 12 hours
effect on early STAT3 activation, in words (STAT3 phosphorylation; first 6 hours of Th17 differentiation): did not interfere with STAT3 activation during the first 6 hours
eIF2α phosphorylation and AAR-associated gene expression in splenocytes, in words [1]: rapidly activates eIF2α phosphorylation and AAR-associated gene expression

Reference: patent US20110212100A1, “METHODS FOR MODULATING DEVELOPMENT AND EXPANSION OF IL-17 EXPRESSING CELLS” (priority 2007, published 2011)
